According to PMC6112376, “Comprehensive Analyses and Prioritization of Tox21 10K Chemicals Affecting Mitochondrial Function by in-Depth Mechanistic Studies” (Environmental Health Perspectives, 2018):
Where a name gives a salt, the structure may show the parent alone. Read-outs that look alike come from different tables or passages of the source.

Assays:
rat primary hepatocytes [1] = system: rat primary hepatocytes
HepG2 cells [2] = details: cited from earlier work
HepG2 cells [3] = assay: cells; details: Homo sapiens; for IC50: HepG2, read-out: MMP assays IC50 (µM) HepG2; for Emax: HepG2, read-out: MMP assays efficacy (%) HepG2
rat primary hepatocytes [4] = assay: MMP assay in rat primary hepatocytes; details: for IC50: Rattus norvegicus, Hepatocyte, read-out: MMP assays IC50 (µM) Rat Hepatocytes
[5] = read-out: MMP assays IC50 (µM) qHTS-HepG2
[6] = read-out: MMP assays IC50 (µM), qHTS-HepG2

Row | Structure (SMILES) | MMP assays efficacy (%) Rat Hepatocytes (rat primary hepatocytes [1]) | MMP assays efficacy (%) qHTS-HepG2 (HepG2 cells [2]) [%] | IC50 (HepG2 cells [2]; [5]) [µM] | IC50 (HepG2 cells [3]) [µM] | Emax (HepG2 cells [3]) [%] | IC50 (rat primary hepatocytes [4]) [µM] | MMP assays IC50 (µM) Rat Hepatocytes (rat primary hepatocytes [4]) | IC50 (HepG2 cells [2]; [6]) [µM]
1 | O=[N+]([O-])c1cc(C2CCCCC2)c(O)c([N+](=O)[O-])c1 [Dinex] | -96±4% | -88±10 | 0.28 ± 0.34 | 0.71 | 86 | 1.4 ± 0.6 | – | –
2 | CCC(C)c1cc([N+](=O)[O-])cc([N+](=O)[O-])c1OC(=O)OC(C)C (stereo not drawn) [Dinobuton] | -115±54% | -105±4 | 4.33 ± 1.24 | 7.94 | 101 | 5.74 ± 4.21 | – | –
3 | NC(=O)Oc1ccc(Cc2ccccc2)cc1 [Diphenan] | -51±6% | -115±14 | 22.3 ± 4.67 | 19.9 | 112 | 84.2 ± 39.6 | – | –
4 | CCOC(=O)C1(c2ccccc2)CCN(CCC(C#N)(c2ccccc2)c2ccccc2)CC1 [Diphenoxylate hydrochloride] | -81±36% | -56±8 | 20.7 ± 1.19 | 17.3 | 71 | 19.4 | – | –
5 | CCN1/C(=C/C=C/C=C/c2sc3ccccc3[n+]2CC)Sc2ccccc21 [Dithiazanine iodide] | -59±11% | -85±6 | 0.1 ± 0.15 | 0.0275 | 88 | 0.98 ± 0.16 | – | –
6 | O=S1(=O)OCC2C(CO1)C1(Cl)C(Cl)=C(Cl)C2(Cl)C1(Cl)Cl (stereo not drawn) [Endosulfan sulfate] | -80+6% | -123±10 | 16 ± 2.05 | 17.8 | 103 | 25.8 ± 10.1 | – | –
7 | ClC1=C(Cl)C2(Cl)C3C4CC(C5OC45)C3C1(Cl)C2(Cl)Cl (stereo not drawn) [Endrin] | inactive | -75±20 | 23.5 ± 7.96 | 21.8 | 55 | – | inactive | –
8 | C[C@]12CC[C@H]3C(=CCc4cc(O)ccc43)[C@@H]1CCC2=O [Equilin] | -47±10% | -97±4 | 24.3 ± 4.6 | 31.6 | 126 | 39.1 ± 15.5 | – | –
9 | C=C(C)CN(CC)c1c([N+](=O)[O-])cc(C(F)(F)F)cc1[N+](=O)[O-] [Ethalfluralin] | inactive | -57±4 | 43.3 ± 17.6 | 44.7 | 68 | – | inactive | –
10 | C#C[C@]1(OC(C)=O)CC[C@H]2[C@@H]3CCC4=C[C@@H](OC(C)=O)CC[C@@H]4[C@H]3CC[C@@]21C [Ethynodiol diacetate] | inactive | -62±16 | 15.4 ± 0.84 | 21.8 | 98 | – | inactive | –
11 | CO[C@H]1C[C@@H]2CC[C@@H](C)[C@@](O)(O2)C(=O)C(=O)N2CCCC[C@H]2C(=O)O[C@H]([C@H](C)C[C@@H]2CC[C@@H](OCCO)[C@H](OC)C2)CC(=O)[C@H](C)/C=C(\C)[C@@H](O)[C@@H](OC)C(=O)[C@H](C)C[C@H](C)/C=C/C=C/C=C/1C [Everolimus] | -38±9% | -96±20 | 19.9 ± 2.83 | 27.5 | 92 | 13 ± 7.49 | – | –
12 | CSC1=N[C@@](C)(c2ccccc2)C(=O)N1Nc1ccccc1 [Fenamidone] | -56±23% | -72±14 | 43.3 ± 17.1 | 19.9 | 59 | 42.8 ± 10.3 | – | –
13 | OC(c1ccc(Cl)cc1)(c1cncnc1)c1ccccc1Cl (stereo not drawn) [Fenarimol] | -81±45% | -77±13 | 42.6 ± 21.9 | 35.5 | 81 | 33.5 ± 2.73 | – | –
14 | COP(=S)(OC)Oc1cc(Cl)c(Cl)cc1Cl [Fenchlorphos] | -96±29% | -97±9 | 13.6 ± 2.52 | 6.15 | 99 | 20.6 ± 1.68 | – | –
15 | CC(NCCC(c1ccccc1)c1ccccc1)c1ccccc1 (stereo not drawn) [Fendiline hydrochloride] | inactive | -79±12 | 10.3 ± 1.55 | 9.75 | 87 | – | inactive | –
16 | CC1(C(=O)Nc2ccc(O)c(Cl)c2Cl)CCCCC1 [Fenhexamid] | -62±26% | -88±22 | 8.31 ± 1.15 | 17.8 | 98 | 36.7 ± 21.2 | – | –
17 | O=C(O)Cc1sc(-c2ccccc2)nc1-c1ccc(Cl)cc1 [Fentiazac] | -88±22% | -91±18 | 27.4 ± 2.92 | 19.4 | 57 | 9.49 ± 7.98 | – | –
18 | Oc1ccc(Cl)cc1Sc1cc(Cl)ccc1O [Fenticlor] | -88±15% | -107±14 | – | 5.48 | 101 | 13.9 ± 8.84 | – | 2.15 ± 0.36
19 | CC(C)C(C(=O)OC(C#N)c1cccc(Oc2ccccc2)c1)c1ccc(Cl)cc1 (stereo not drawn) [Fenvalerate] | inactive | -69±10 | – | 35.5 | 60 | – | inactive | 32.1
20 | CCC(=O)c1c(O)cc(O)cc1O [Flopropione] | inactive | -111±23 | – | 17.3 | 103 | – | inactive | 18.8 ± 6.83
21 | O=C(NC(=O)c1c(F)cccc1F)Nc1ccc(Cl)c(Oc2ncc(C(F)(F)F)cc2Cl)c1 [Fluazuron] | -64±17% | -66±7 | – | 12.3 | 83 | 9.83 ± 13.6 | – | 3.96 ± 2.31
22 | Cc1cc(C(F)(C(F)(F)F)C(F)(F)F)ccc1NC(=O)c1cccc(I)c1C(=O)NC(C)(C)CS(C)(=O)=O [Flubendiamide] | -80±23% | -87±14 | – | 25.3 | 94 | 12.8 ± 8.15 | – | 18.7 ± 2.59
23 | CC(C)[C@H](C(=O)OC(C#N)c1cccc(Oc2ccccc2)c1)c1ccc(OC(F)F)cc1 (stereo partly drawn) [Flucythrinate] | -57±39% | -84±23 | – | 31.6 | 80 | 43.9 ± 17.4 | – | 35.7 ± 20
24 | O=[N+]([O-])c1ccc(Oc2ccc(C(F)(F)F)cc2[N+](=O)[O-])cc1 [Fluorodifen] | -114±10% | -89±20 | – | 28.2 | 94 | 24.1 ± 15 | – | 27.3 ± 25.1
25 | CO/N=C(/C1=NOCCO1)c1ccccc1Oc1ncnc(Oc2ccccc2Cl)c1F [Fluoxastrobin] | -105±24% | -81±29 | – | 11.2 | 72 | 37.9 ± 19.3 | – | 45.8 ± 15
